Literature values as cited in patent US20040259937A1, “Hydroxycitric acid complex metal salts, composition, and methods” (INDFRAG LIMITED, priority 2003, published 2004).

Conditions: converted to the lactone form during processing

O=C(O)CC(O)(C(=O)O)C(O)C(=O)O (single isomer, unassigned; (-)) [(−)hydroxycitric acid]
stability of pure free acid: not stable
